Source: patent US12606552B2, “Bifunctional compound, preparation method therefor, and use thereof” (SUZHOU KINTOR PHARMACEUTICALS, INC., priority 2020, dated 2026)

The compounds below were run against T1, AR (Homo sapiens, UniProt P10275, T878A) (assay: Effects of compounds on AR expression in LNCaP cells (ELISA, DC50)). Details: 24 hours of drug treatment, AR by ELISA.
T1 sequence (P10275 1-920 T878A): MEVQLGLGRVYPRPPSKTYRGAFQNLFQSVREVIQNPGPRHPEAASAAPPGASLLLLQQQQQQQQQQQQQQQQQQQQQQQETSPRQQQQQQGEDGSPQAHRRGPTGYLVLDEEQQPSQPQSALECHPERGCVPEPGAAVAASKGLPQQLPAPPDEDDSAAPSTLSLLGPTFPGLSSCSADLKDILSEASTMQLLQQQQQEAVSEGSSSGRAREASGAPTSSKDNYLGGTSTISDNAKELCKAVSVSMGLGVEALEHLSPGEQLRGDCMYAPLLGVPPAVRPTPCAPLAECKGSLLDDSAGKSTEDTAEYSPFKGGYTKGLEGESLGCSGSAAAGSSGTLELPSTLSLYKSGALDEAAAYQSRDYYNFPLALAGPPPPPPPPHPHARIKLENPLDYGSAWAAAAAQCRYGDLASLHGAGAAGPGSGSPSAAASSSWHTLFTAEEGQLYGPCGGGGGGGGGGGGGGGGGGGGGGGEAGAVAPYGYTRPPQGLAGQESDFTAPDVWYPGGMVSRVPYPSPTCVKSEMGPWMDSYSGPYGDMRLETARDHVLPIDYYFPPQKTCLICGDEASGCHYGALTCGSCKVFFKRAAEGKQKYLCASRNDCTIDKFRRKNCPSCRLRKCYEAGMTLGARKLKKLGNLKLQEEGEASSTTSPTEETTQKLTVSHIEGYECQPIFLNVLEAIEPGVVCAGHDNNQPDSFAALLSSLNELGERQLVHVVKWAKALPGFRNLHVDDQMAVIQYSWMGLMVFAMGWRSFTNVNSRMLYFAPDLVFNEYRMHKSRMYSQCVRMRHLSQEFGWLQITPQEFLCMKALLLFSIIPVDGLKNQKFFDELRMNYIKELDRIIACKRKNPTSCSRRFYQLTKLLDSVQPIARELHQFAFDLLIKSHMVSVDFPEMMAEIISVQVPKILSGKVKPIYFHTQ
Assay type: cell-based
Design: Measurement of the Effects of Drugs on the Expression of AR in Cells by ELISA Method; endogenous in cells; host or cells: LNCaP
Experimental: Activity Assay Example 1: Effects of Compounds on AR Expression in LNCaP Cells
1. Cell Line and Cell Culture
Human prostate cancer cells LNCaP (Shanghai Chinese Academy of Sciences Cell Bank). LNCaP was cultured in 1640 medium containing 10% fetal bovine serum. The cells grow in clusters, with weak adhesion to the bottom of the culture flask, slow proliferation, with a multiplication time of 72 h. The cells are closely adhered to each other and need to be digested with 0.05% trypsin containing 0.025% EDTA. The cells were passaged every 3 days. The cells were cultured at 37° C. and 5% CO2 in a humidified incubator
2. Cell plating: The supernatant was discarded, and the Lncap cells in the logarithmic growth phase were taken, washed with PBS once, and added with appropriate 0.05% trypsin digestion solution to be fully digested into single cell suspension, and centrifuged, resuspended and counted to make the number of cells about 15,000 per well, then inoculated in a 96-well plate, placed at 37° C., 5% CO2 and cultured overnight for 24 h.
3. Preparation and Addition of Compound Solutions
About 2 mg of each compound was weighed and dissolved in DMSO to make the stock solution with a concentration of 10 mmol/L. Dilution process (final concentration dilution: 2, 0.667, 0.222, 0.074, 0.0245, 0.008, 0.003, 0.001, 0.0003, 0.0001 μmol/L): 10 centrifuge tubes with a volume of 1.5 mL were taken and numbered 1, 2, 3, 4, 5, 6, 7, 8, 9, and 10, 80 μL DMSO was added to tube No. 1, and 60 μL DMSO was added to tubes No. 2 to No. 10, 20 μL of the stock solution was pipetted to tube No. 1 and mixed well; 30 μL was pipetted from tube No. 1 into tube No. 2 and mixed well. 30 μL was pipetted from tube No. 2 into tube No. 3 and mixed well, and so forth, to obtain samples No. 4-10, and to obtain working solutions of compounds of different concentrations respectively. 2 μL was pipetted from the above-mentioned tubes No. 1-10 into each corresponding sterile deep-well plates, added with 198 μL of culture medium, and mixed well. 11 ul was added to each well of the 96-well cell plate cultured overnight to obtain the corresponding desired concentrations (2, 0.667, 0.222, 0.074, 0.0245, 0.008, 0.003, 0.001, 0.0003, 0.0001 μmol/L).
4. Measurement of the Effects of Drugs on the Expression of AR in Cells by ELISA Method
After 24 hours of drug treatment, the supernatant was removed, and 200 μL of PBS was added to wash cells, and then the supernatant was removed, and 100 μL of cell lysate was added to lyse cells on ice for 20 min, then the cell lysate was centrifuged at 4000 rpm for 20 min at 4° C. and the supernatant was taken for later use. The measurement steps of the supernatant were according to the ELISA kit instructions:
4.1 The slats required for the test were taken out from the sealed bag that has been equilibrated to room temperature. Please put the unused slats and desiccant back into the aluminum foil bag and compress the self-sealing strip, seal the bag, and store at 4° C.
4.2 Standards and sample diluents were added to blank wells, and different concentrations of standards (10 ul/well) and sample diluents (90 ul/well) were added to the remaining corresponding wells, and the reaction wells were sealed with sealing tape, and refrigerated at 4° C. overnight.
4.3 Primary antibody was diluted with dilution buffer to the corresponding concentration and added to each well in 100 ul/well. The reaction wells were sealed with sealing tape and incubated at 37° C. for 60 min.
4.4 Secondary antibody was diluted with dilution buffer to the corresponding concentration and added to each well in 100 ul/well. The reaction wells were sealed with sealing tape and incubated at 37° C. for 30 min.
4.5 The reaction wells were added with 100 ul/well of substrate (TMB) and incubated at room temperature for 30 min.
4.6 The reaction wells were added with 100 ul/well of stop solution, mixed well and then the OD450 value was measured with a microplate reader. […]
In the case of `Cn1cncc1-c1c[nH]c([C@@H]2C[C@@H](O)CN2C(=O)[C@@H](NC(=O)COCCCCOc2ccc(-c3ncc(N4C(=S)N(c5ccc(C#N)c(C(F)(F)F)c5F)C(=O)C4(C)C)cc3F)c(C(F)(F)F)c2)C(C)(C)C)n1` [Compound A233], the DC50 is reported as 194 nM.
For `CC1(C)C(=O)N(c2ccc(C#N)c(C(F)(F)F)c2F)C(=S)N1c1ccc(-c2ccc(C(=O)N3CCN(C(=O)COc4cccc5c4C(=O)N(C4CCC(=O)NC4=O)C5=O)CC3)cc2)nc1` (stereo not shown) [Compound A45], the DC50 was over 2000 nM.
`Cc1ncsc1-c1ccc(CNC(=O)[C@@H]2C[C@@H](O)CN2C(=O)[C@@H](NC(=O)COCCC(F)COc2ccc(-c3ncc(N4C(=S)N(c5ccc(C#N)c(C(F)(F)F)c5F)C(=O)C4(C)C)cc3F)cc2F)C(C)(C)C)cc1` (stereo partly shown) [Compound A147] gave a DC50 of 84.9 nM.
`Cc1ncsc1-c1ccc(CNC(=O)[C@@H]2C[C@@H](O)CN2C(=O)[C@@H](NC(=O)COCCOc2ncc(N3C(=S)N(c4ccc(C#N)c(C(F)(F)F)c4F)C(=O)C3(C)C)cc2C(F)(F)F)C(C)(C)C)cc1` [Compound A269] showed a DC50 of 766 nM.
With `CC(C)(C)[C@H](NC(=O)COCCCCOc1ccc(-c2ccc(N3C(=S)N(c4ccc(C#N)c(C(F)(F)F)c4F)C(=O)C3(C)C)cn2)cc1)C(=O)N1C[C@H](O)C[C@H]1c1nc(-c2cccs2)c[nH]1` [Compound A209] the DC50 was 856 nM.
`CNC(=O)c1ccc(-c2c[nH]c([C@@H]3C[C@@H](O)CN3C(=O)[C@@H](NC(=O)COCCCCOc3ccc(-c4ncc(N5C(=S)N(c6ccc(C#N)c(C(F)(F)F)c6F)C(=O)C5(C)C)cc4F)c(C(F)(F)F)c3)C(C)(C)C)n2)cc1` [Compound A235] was tested, and the DC50 was 125 nM.
`Cc1ncsc1-c1ccc(CNC(=O)[C@@H]2C[C@@H](O)CN2C(=O)[C@@H](NC(=O)Cc2ccc(C(=O)Nc3ccc(-c4ncc(N5C(=S)N(c6ccc(C#N)c(C(F)(F)F)c6F)C(=O)C5(C)C)cc4F)c(C(F)(F)F)c3)cc2)C(C)(C)C)cc1` [Compound A256] showed a DC50 of 119 nM.
`Cc1ncsc1-c1ccc(CNC(=O)[C@@H]2C[C@@H](O)CN2C(=O)[C@@H](NC(=O)COCCOCCCCOc2ccc(N3C(=S)N(c4ccc(C#N)c(C(F)(F)F)c4F)C(=O)C3(C)C)cn2)C(C)(C)C)cc1` [Compound A254] showed a DC50 of 52.5 nM.
In the case of `Cc1ncsc1-c1c[nH]c([C@@H]2C[C@@H](O)CN2C(=O)[C@@H](NC(=O)COCCCCOc2ccc(-c3ncc(N4C(=S)N(c5ccc(C#N)c(C(F)(F)F)c5F)C(=O)C4(C)C)cc3F)cc2F)C(C)(C)C)n1` [Compound A160], the DC50 is reported as 151 nM.
For `CC1(C)C(=O)N(c2ccc(C#N)c(C(F)(F)F)c2F)C(=S)N1c1ccc(C2CC2C(=O)NCCCNC(=O)COc2cccc3c2C(=O)N(C2CCC(=O)NC2=O)C3=O)nc1` (stereo not shown) [Compound A25], the DC50 was over 2000 nM.
In the case of `CC(C)(C)[C@H](NC(=O)COCCCCOc1ccc(-c2ccc(N3C(=S)N(c4ccc(C#N)c(C(F)(F)F)c4F)C(=O)C3(C)C)cn2)cc1C(F)(F)F)C(=O)N1C[C@H](O)C[C@H]1C(=O)NCc1ccccc1` [Compound A122], the DC50 is reported as 155 nM.
`Cc1ncsc1-c1ccc(CNC(=O)[C@@H]2C[C@@H](O)CN2C(=O)[C@@H](NC(=O)[C@H]2CC[C@H](CNC(=O)CCCc3ccc(N4C(=S)N(c5ccc(C#N)c(C(F)(F)F)c5F)C(=O)C4(C)C)cn3)CC2)C(C)(C)C)cc1` [Compound A140] gave a DC50 of 1500 nM.
`Cc1ncsc1-c1ccc(CNC(=O)[C@@H]2C[C@@H](O)CN2C(=O)[C@@H](NC(=O)COc2ccc(-c3ccc(N4C(=S)N(c5ccc(C#N)c(C(F)(F)F)c5F)C(=O)C4(C)C)cn3)cc2)C(C)(C)C)cc1` [Compound A48] showed a DC50 of over 2000 nM.
Work on `Cc1cc(C(C(=O)N2C[C@H](O)C[C@H]2C(=O)N[C@@H](CC(=O)NCCN2CCC(C#Cc3ccc(N4C(=S)N(c5ccc(C#N)c(C(F)(F)F)c5F)C(=O)C4(C)C)cc3)CC2)c2ccc(-c3scnc3C)cc2)C(C)C)on1` (stereo partly shown) [Compound A184] yielded a DC50 of 370 nM.
`Cc1ncsc1-c1ccc(CNC(=O)[C@@H]2C[C@@H](O)CN2C(=O)[C@@H](NC(=O)CCN2CCC(Oc3ccc(-c4ncc(N5C(=S)N(c6ccc(C#N)c(C(F)(F)F)c6F)C(=O)C5(C)C)cc4F)cc3F)CC2)C(C)(C)C)cc1` [Compound A104] showed a DC50 of 241 nM.
With `CC(C)(C)[C@H](NC(=O)COCCCCOc1ccc(-c2ncc(N3C(=S)N(c4ccc(C#N)c(C(F)(F)F)c4F)C(=O)C3(C)C)cc2F)c(C(F)(F)F)c1)C(=O)N1C[C@H](O)C[C@H]1c1nc(-c2cncnc2)c[nH]1` [Compound A227] the DC50 was 24.8 nM.
With `CC1(C)C(=O)N(c2ccc(C#N)c(C(F)(F)F)c2F)C(=S)N1c1cnc(-c2ccc(OCC(=O)NCCNc3cccc4c3C(=O)N(C3CCC(=O)NC3=O)C4=O)c(F)c2)c(F)c1` (stereo not shown) [Compound A41] the DC50 was 59 nM.
With `Cc1ncsc1-c1ccc(CNC(=O)[C@@H]2C[C@@H](O)CN2C(=O)[C@@H](NC(=O)CCCn2cc(COc3ccc(-c4ccc(N5C(=S)N(c6ccc(C#N)c(C(F)(F)F)c6F)C(=O)C5(C)C)cn4)cc3)nn2)C(C)(C)C)cc1` [Compound A81] the DC50 was 63.3 nM.
Compound `CC(C)(C)[C@H](NC(=O)COCCCCOc1ccc(-c2ccc(N3C(=S)N(c4ccc(C#N)c(C(F)(F)F)c4F)C(=O)C3(C)C)cn2)cc1C(F)(F)F)C(=O)N1C[C@H](O)C[C@H]1C(=O)NCc1ccc(C(N)=O)cc1` [Compound A121] has a DC50 of 336 nM.
In the case of `Cc1ncsc1-c1ccc(CNC(=O)[C@@H]2C[C@@H](O)CN2C(=O)[C@@H](NC(=O)C2CCN(C3CCN(C(=O)c4ccc(-c5ccc(N6C(=S)N(c7ccc(C#N)c(C(F)(F)F)c7F)C(=O)C6(C)C)cn5)cc4)CC3)CC2)C(C)(C)C)cc1` [Compound A61], the DC50 is reported as 268 nM.
In the case of `Cc1ncsc1-c1ccc(CNC(=O)[C@@H]2C[C@@H](O)CN2C(=O)[C@@H](NC(=O)COCCCCN2CCN(c3ccc(N4C(=S)N(c5ccc(C#N)c(C(F)(F)F)c5F)C(=O)C4(C)C)cn3)CC2)C(C)(C)C)cc1` [Compound A106], the DC50 is reported as 402 nM.
`Cc1ncsc1-c1ccc(CNC(=O)[C@@H]2C[C@@H](O)CN2C(=O)[C@@H](NC(=O)COCCCCNc2ccc(-c3ccc(N4C(=S)N(c5ccc(C#N)c(C(F)(F)F)c5F)C(=O)C4(C)C)cn3)cc2)C(C)(C)C)cc1` [Compound A68] showed a DC50 of over 2000 nM.
